PubChem BioAssay AID330 (DTP/NCI, 2004)
Values joined by “and” are separate entries in the source; they are usually repeats but may differ in a detail not shown here. Equal values may be shown once. Toxic doses and inconclusive results are not listed. Rule for the calls: active = survival T/C of 150% or more; inactive = T/C below 125% in these data.

System: P388 leukemia ip, CD2F1 mice, survival T/C
Test: NCI In Vivo Anticancer Drug Screen. Data for tumor model P388 Leukemia (intraperitoneal) in CD2F1 (CDF1) mice
Conditions: endpoint: median survival time, higher = longer survival
Method in brief: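 Mice carrying the transplanted tumor received test compound or vehicle. Survival was recorded in each group, and the value is the treated-group measurement divided by that of the vehicle-treated control group.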

[1] = dose: 50.0 mg/kg/injection, schedule: Q01DX005 (ip), vehicle: saline with Tween-80
[2] = dose: 100.0 mg/kg/injection, schedule: Q01DX005 (ip), vehicle: saline with Tween-80
[3] = dose: 50.0 mg/kg/injection, schedule: Q01DX005 (ip), vehicle: Klucel (hydroxypropylcellulose) (HPC)
[4] = dose: 100.0 mg/kg/injection, schedule: Q01DX005 (ip), vehicle: Klucel (hydroxypropylcellulose) (HPC)
[5] = dose: 200.0 mg/kg/injection, schedule: Q01DX005 (ip), vehicle: Klucel (hydroxypropylcellulose) (HPC)
[6] = dose: 25.0 mg/kg/injection, schedule: Q01DX005 (ip), vehicle: Klucel (hydroxypropylcellulose) (HPC)
[7] = dose: 25.0 mg/kg/injection, schedule: Q01DX009 (ip), vehicle: Klucel (hydroxypropylcellulose) (HPC)
[8] = dose: 100.0 mg/kg/injection, schedule: Q01DX009 (ip), vehicle: saline with Tween-80
[9] = dose: 200.0 mg/kg/injection, schedule: Q01DX009 (ip), vehicle: saline with Tween-80
[10] = dose: 400.0 mg/kg/injection, schedule: Q01DX009 (ip), vehicle: saline with Tween-80
[11] = dose: 60.0 mg/kg/injection, schedule: Q01DX005 (ip), vehicle: saline with Tween-80
[12] = dose: 120.0 mg/kg/injection, schedule: Q01DX005 (ip), vehicle: saline with Tween-80
[13] = dose: 100.0 mg/kg/injection, schedule: Q04DX003 (ip), vehicle: saline with Tween-80
[14] = dose: 200.0 mg/kg/injection, schedule: Q04DX003 (ip), vehicle: saline with Tween-80
[15] = dose: 400.0 mg/kg/injection, schedule: Q04DX003 (ip), vehicle: saline with Tween-80
[16] = dose: 50.0 mg/kg/injection, schedule: Q01DX009 (ip), vehicle: Klucel (hydroxypropylcellulose) (HPC)
[17] = dose: 100.0 mg/kg/injection, schedule: Q01DX009 (ip), vehicle: Klucel (hydroxypropylcellulose) (HPC)

Measured: T/C

CCOC(=O)C/C(C)=N\NC(=O)c1ccncc1
inactive: dose: 37.0 mg/kg/injection, schedule: Q01DX009 (ip), vehicle: saline with Tween-80 97 % of control | dose: 75.0 mg/kg/injection, schedule: Q01DX009 (ip), vehicle: saline with Tween-80 105 % of control | dose: 150.0 mg/kg/injection, schedule: Q01DX009 (ip), vehicle: saline with Tween-80 106 % of control

CC(O)c1nc2c3ccccc3ccc2n1C (stereo not drawn)
inactive: [1] 96 % of control | [2] 93 % of control | dose: 200.0 mg/kg/injection, schedule: Q01DX005 (ip), vehicle: saline with Tween-80 92 % of control

CCc1nc2c(cnn2C)c(=O)n1-c1ccc(C)cc1
inactive: [3] 97 % of control | [4] 101 % of control | [5] 98 % of control

Cc1cc(=O)[nH]c2cc(O)ccc12
inactive: [6] 100 % of control | [3] 93 % of control | [4] 98 % of control

CCNc1ccc(/C=C2\C=Cc3ccccc32)cc1
inactive: [7] 110 % of control

C=CCC(C=C=CCN(C)C)CO (stereo not drawn)
inactive: dose: 50.0 mg/kg/injection, schedule: Q01DX005 (ip), vehicle: saline 103 % of control | dose: 100.0 mg/kg/injection, schedule: Q01DX005 (ip), vehicle: saline 104 % of control

CCCCCCCCCCCC1=C(O)C(=O)C(Br)=C(O)C1=O
inactive: [1] 92 % of control | [2] 92 % of control

CC(=O)O[C@H]1CC[C@H]2[C@@H]3CCC4=CC(=O)CC[C@]4(C)[C@H]3[C@H](OC(C)=O)C[C@]12C
inactive: [8] 95 % of control | [9] 100 % of control | [10] 90 % of control

C=C1C(=O)OC2CC3=CCC(OC3=O)/C(C)=C\CC12 (stereo not drawn)
inactive: dose: 21.5 mg/kg/injection, schedule: Q01DX005 (ip), vehicle: Klucel (hydroxypropylcellulose) (HPC) 118 % of control | dose: 43.0 mg/kg/injection, schedule: Q01DX005 (ip), vehicle: Klucel (hydroxypropylcellulose) (HPC) 116 % of control | dose: 86.0 mg/kg/injection, schedule: Q01DX005 (ip), vehicle: Klucel (hydroxypropylcellulose) (HPC) 108 % of control

C=CC(N)[Si](CC)(CC)CC (stereo not drawn)
inactive: [11] 106 % of control | [12] 101 % of control

Nc1nc(-c2ccccc2)c(CCCNc2ccc(C(=O)NC(CCC(=O)O)C(=O)O)cc2)c(=O)[nH]1 (stereo not drawn)
inactive: [3] 102 % of control | [4] 102 % of control | [5] 106 % of control

O=CNc1ccc2c3c(cccc13)-c1ccccc1-2
inactive: [3] 89 % of control | [4] 97 % of control | [5] 100 % of control

COC(=O)c1ccc(SSc2ccc(C(=O)OC)cc2[N+](=O)[O-])c([N+](=O)[O-])c1
inactive: [8] 91 % of control | [13] 90 % of control | [9] 100 % of control | [14] 95 % of control | [10] 91 % of control | [15] 90 % of control

CS(=O)(=O)OCCN1C(=O)CNC1=O
inactive: dose: 12.5 mg/kg/injection, schedule: Q04DX003 (ip), vehicle: saline 99 % of control | dose: 25.0 mg/kg/injection, schedule: Q04DX003 (ip), vehicle: saline 106 % of control | dose: 50.0 mg/kg/injection, schedule: Q04DX003 (ip), vehicle: saline 99 % of control | dose: 100.0 mg/kg/injection, schedule: Q04DX003 (ip), vehicle: saline 101 % of control | dose: 200.0 mg/kg/injection, schedule: Q04DX003 (ip), vehicle: saline 101 % of control | dose: 400.0 mg/kg/injection, schedule: Q04DX003 (ip), vehicle: saline 99 % of control

O=c1[nH]c(=O)n(C2CCCS2)cc1F (stereo not drawn)
inactive: dose: 37.5 mg/kg/injection, schedule: Q01DX009 (ip), vehicle: suspension in saline 100 % of control | dose: 75.0 mg/kg/injection, schedule: Q01DX009 (ip), vehicle: suspension in saline 100 % of control | dose: 150.0 mg/kg/injection, schedule: Q01DX009 (ip), vehicle: suspension in saline 97 % of control

O=S(CCCl)CCCl
active: dose: 12.5 mg/kg/injection, schedule: Q01DX001 (ip), vehicle: saline 152 % of control
inactive: dose: 6.25 mg/kg/injection, schedule: Q01DX001 (ip), vehicle: saline 117 % of control

COc1ccc(NC(=O)Nc2ccc(C#N)cc2)cc1
inactive: [11] 101 % of control | [12] 93 % of control | dose: 240.0 mg/kg/injection, schedule: Q01DX005 (ip), vehicle: saline with Tween-80 93 % of control

NC(N)=NS(=O)(=O)c1ccc(NCc2c3ccccc3nc3ccccc23)cc1
inactive: dose: 3.12 mg/kg/injection, schedule: Q04DX002 (ip), vehicle: Klucel (hydroxypropylcellulose) (HPC) 114 % of control
active: dose: 12.5 mg/kg/injection, schedule: Q04DX002 (ip), vehicle: Klucel (hydroxypropylcellulose) (HPC) 165 % of control | dose: 25.0 mg/kg/injection, schedule: Q04DX002 (ip), vehicle: Klucel (hydroxypropylcellulose) (HPC) 172 % of control | dose: 50.0 mg/kg/injection, schedule: Q04DX002 (ip), vehicle: Klucel (hydroxypropylcellulose) (HPC) 166 % of control | dose: 50.0 mg/kg/injection, schedule: Q04DX003 (ip), vehicle: Klucel (hydroxypropylcellulose) (HPC) 151 % of control and 156 % of control | dose: 100.0 mg/kg/injection, schedule: Q04DX002 (ip), vehicle: Klucel (hydroxypropylcellulose) (HPC) 174 % of control | dose: 100.0 mg/kg/injection, schedule: Q04DX003 (ip), vehicle: Klucel (hydroxypropylcellulose) (HPC) 168 % of control and 169 % of control | dose: 200.0 mg/kg/injection, schedule: Q04DX002 (ip), vehicle: Klucel (hydroxypropylcellulose) (HPC) 151 % of control | dose: 200.0 mg/kg/injection, schedule: Q04DX003 (ip), vehicle: Klucel (hydroxypropylcellulose) (HPC) 174 % of control and 180 % of control | dose: 400.0 mg/kg/injection, schedule: Q04DX002 (ip), vehicle: Klucel (hydroxypropylcellulose) (HPC) 169 % of control | dose: 400.0 mg/kg/injection, schedule: Q04DX003 (ip), vehicle: Klucel (hydroxypropylcellulose) (HPC) 155 % of control and 202 % of control and 207 % of control | dose: 800.0 mg/kg/injection, schedule: Q04DX002 (ip), vehicle: Klucel (hydroxypropylcellulose) (HPC) 161 % of control | dose: 800.0 mg/kg/injection, schedule: Q04DX003 (ip), vehicle: Klucel (hydroxypropylcellulose) (HPC) 162 % of control and 210 % of control and 250 % of control

CCC[As](CCC)SC1OC(COC(C)=O)C(OC(C)=O)C(OC(C)=O)C1OC(C)=O (stereo not drawn)
inactive: dose: 50.0 mg/kg/injection, schedule: Q01DX009 (ip), vehicle: saline with Tween-80 117 % of control and 88 % of control | [8] 107 % of control and 92 % of control | [9] 110 % of control and 124 % of control

O=[N+]([O-])c1ccc2c(N=Nc3ccc4ccccc4c3O)c(O)cc(S(=O)(=O)O)c2c1
inactive: [8] 90 % of control | [13] 95 % of control | [14] 100 % of control | [15] 100 % of control

Nc1ccc(O)c2c1C(=O)c1c(O)ccc(N)c1C2=O
inactive: [3] 100 % of control | [4] 105 % of control | [5] 87 % of control

ClCC[N+]12CC[N+](CCCl)(CC1)C2.[Cl][Pt]([Cl])([Cl])[Cl]
inactive: dose: 6.25 mg/kg/injection, schedule: Q01DX009 (ip), vehicle: distilled water + Tween-80 100 % of control
active: dose: 25.0 mg/kg/injection, schedule: Q01DX009 (ip), vehicle: distilled water + Tween-80 169 % of control

c1cc[n+](Cc2c3ccccc3cc3c2ccc2ccccc23)cc1
inactive: dose: 6.25 mg/kg/injection, schedule: Q01DX005 (ip), vehicle: Klucel (hydroxypropylcellulose) (HPC) 112 % of control | dose: 12.5 mg/kg/injection, schedule: Q01DX005 (ip), vehicle: Klucel (hydroxypropylcellulose) (HPC) 112 % of control | [6] 110 % of control

CC1C=CCC(C)(C#N)C1 (stereo not drawn)
inactive: [16] 103 % of control | [17] 100 % of control | dose: 200.0 mg/kg/injection, schedule: Q01DX009 (ip), vehicle: Klucel (hydroxypropylcellulose) (HPC) 108 % of control

Nc1ncnc2c1ccn2COCCOP(=O)(O)O
inactive: dose: 50.0 mg/kg/injection, schedule: Q01DX005 (ip), vehicle: distilled water + alcohol 105 % of control | dose: 100.0 mg/kg/injection, schedule: Q01DX005 (ip), vehicle: distilled water + alcohol 100 % of control | dose: 200.0 mg/kg/injection, schedule: Q01DX005 (ip), vehicle: distilled water + alcohol 98 % of control

[Cl][Pd][Cl].[NH-]CCN1CC1
inactive: [7] 119 % of control | [16] 112 % of control | [17] 114 % of control
